{"source": "patent US20180251431A1", "about": "(VERTEX PHARMACEUTICALS INCORPORATED, priority 2016, published 2018)"}
{"tested_on": "HEK293 cells", "assay": "HEK293 VLCFA-LPC IC50 determination (13C-labeled C26:0 LPC by UHPLC/MS)", "assay_type": "cell-based, human", "details": "Homo sapiens, HEK293, 48 h, average of one or more replicates; 13C-labeled C26:0 LPC, 48 hours; read-out: Average HEK293 IC50", "protocol": "(§1) HEK293 cells were treated with compounds, such as those listed in Tables A-E of Example 1, using the representative manual protocols described below. The protocols below were also adapted to a semi-automated protocol using standard methods in the art.\n(§2) Cell Culture Growth Conditions:\n(§3) HEK293 cells were maintained in FreeStyle F17 media (Gibco # A13835) supplemented with PenStrep (1%, Gibco #15070-063), Glutamax (2%, Gibco #35050-061), and Pluronic (0.1%, Gibco #24040-032) (“supplemented media”). Suspension cultures were grown in disposable Erlenmeyer flasks at about 120 rpm, 37° C., 5% CO2, and 80% humidity. Cell densities were kept between about 0.5 and 3 million cells per mL, in about 50-200 mL per flask.\n(§4) Treatment of Cells with Compounds Provided Herein:\n(§5) The cells were treated with compounds using either a total of 900 uL cell media volume (high-volume assay) or a total of 200 uL cell media volume (low-volume assay). In the high volume assay, 450 μL of supplemented media plus 13C-acetate (1.0 mg/mL, Sigma Aldrich #282014) were added to 0.5 μL of a compound (such as those in Tables A-E) in DMSO in a polypropylene v-bottom plate (Costar #3363) in 1 of 3 dilution schemes. The contents of each well were mixed and transferred to a sterile polypropylene deep-well v-bottom plate (Costar #3960). 450 μL of cultured HEK293 cells in supplemented media at a density of 1.0 million cells/mL was added to each well. In the low volume assay, 100 μL of supplemented media plus 13C-acetate (1.0 mg/mL, Sigma Aldrich #282014) were added to either 0.1 μL or 1.0 uL of a compound (such as those in Tables A-E) in DMSO in a polypropylene v-bottom plate (Costar #3363) in 1 of 3 dilution schemes. 100 μL of cultured HEK293 cells in supplemented media at a density of 1.0 million cells/mL was added to each well. The high volume and low volume plates were sealed with either AirPore Tape Sheets (Qiagen #19571) or Duetz plate covers to control evaporation and placed into a shaking incubator at 225 rpm, 37° C., 5% CO2, and 80% humidity for 48 hours. For both the high and low volume assays the 3 dilution schemes used were as follows:\n(§6) Following incubation, treated cells were harvested by centrifugation at 1690×g for 10 minutes. In the high volume assay 200 uL treated cells were transferred to a polypropylene v-bottom plate (Costar #3363) prior to centrifugation. In the low volume assay the incubation plate was centrifuged directly, without a transfer step. The supernatant was then discarded and the analytes were extracted using 1 of 2 different extraction schemes. In the first scheme, the cell pellet was visibly broken up by mixing the cell pellet up and down in 100 μL of hexane/isopropanol (60:40) 20 times. The resulting mixture was transferred to a 0.45 μm Durapore membrane (Millipore #MSH VN4510) atop a polypropylene v-bottom plate (Costar #3363) and filtered by centrifugation at 1690×g for 5 minutes. 120 μL of n-butanol containing 10 nM C13:0 lysophosphatidylcholine was added to the filtrate as an injection control standard, then the entire volume was transferred to a new Durapore membrane/v-bottom plate. In the second scheme, the cell pellet was visibly broken up by mixing the cell pellet up and down in 180 μL of methanol containing 10 nM C13:0 lysophosphatidylcholine 20 times. The resulting mixture was transferred to a 0.45 μm Durapore membrane (Millipore #MSH VN4510) atop a polypropylene v-bottom plate and filtered by centrifugation at 1690×g for 5 minutes. In both schemes, the plates were then sealed with pierceable capmats (Micronic MP53017) and stored at −20 OC until analyzed.\n(§7) UHPLC/Mass Spectrometry Readout:\n(§8) The filtered organic extraction was analyzed with a 1290 Agilent Infinity Series UHPLC coupled to an ABI Sciex QTrap 6500 mass spectrometer. […]", "units": {"IC50": "nM"}}
{"compound": "O=C(Nc1ccn(-c2ccccc2)n1)C1(c2ccccc2)CC1(F)F", "note": "(single isomer, unassigned) [Compound 366]", "IC50": 210}
{"compound": "O=C(Nc1ccn(-c2ccnc(F)c2)n1)C1(c2ccccc2)CC1(F)F", "note": "(single isomer, unassigned) [Compound 368]", "IC50": 32}
{"compound": "O=C(Nc1ccn(-c2ccnc(F)c2)n1)C1(c2ccccc2)CC1(Cl)Cl", "note": "(single isomer, unassigned) [Compound 370]", "IC50": 170}
{"compound": "O=C(Nc1ccn(-c2ccnc(F)c2)n1)C1(c2ccccc2)CC1(Cl)Cl", "note": "(single isomer, unassigned) [Compound 371]", "IC50": 720}
{"compound": "O=C(Nc1ccn(-c2ccncc2)n1)C1(c2ccccc2)CC1(F)F", "note": "(single isomer, unassigned) [Compound 433]", "IC50": 320}
{"compound": "O=C(Nc1ccn(-c2cncc(F)c2)n1)[C@]1(c2ncccc2F)CC12CC2", "note": "(single isomer, unassigned) [Compound 499]", "IC50": 740}
{"compound": "O=C(Nc1ccn(-c2cncc(F)c2)n1)[C@@]1(c2ncccc2F)CC12CC2", "note": "(single isomer, unassigned) [Compound 500]", "IC50": 430}
{"tested_on": "HEK293 cells", "assay": "HEK293 VLCFA-LPC IC50 determination (13C-labeled C26:0 LPC by UHPLC/MS)", "assay_type": "cell-based, human", "details": "Homo sapiens, HEK293, HEK293 cells; average of one or more replicates; read-out: Average HEK293 IC50", "protocol": "as §1, §2, §3, §4, §5, §6, §7, §8", "units": {"IC50": "nM"}}
{"compound": "O=C(Nc1ccn(-c2ccccc2)n1)C1(c2ccccc2)CC1(F)F", "note": "(racemic) [Compound 143, 2,2-difluoro-1-phenyl-N-(1-phenyl-1H-pyrazol-3-yl)cyclopropane-1-carboxamide]", "IC50": 140}
{"compound": "O=C(Nc1ccn(-c2ccncc2)n1)C1(c2ccccc2)CC1(F)F", "note": "(racemic) [Compound 419, 2,2-difluoro-1-phenyl-N-(1-(pyridin-4-yl)-1H-pyrazol-3-yl)cyclopropane-1-carboxamide]", "IC50": 240}
{"compound": "O=C(Nc1ccn(-c2cncc(F)c2)n1)C1(c2ccccc2)CC1(F)F", "note": "(racemic) [Compound 420, 2,2-difluoro-N-(1-(5-fluoropyridin-3-yl)-1H-pyrazol-3-yl)-1-phenylcyclopropane-1-carboxamide]", "IC50": 100}
{"compound": "O=C(Nc1ccn(-c2cccc(Cl)c2)n1)C1(c2ccccc2)CC1(F)F", "note": "(racemic) [Compound 421, N-(1-(3-chlorophenyl)-1H-pyrazol-3-yl)-2,2-difluoro-1-phenylcyclopropane-1-carboxamide]", "IC50": 470}
{"compound": "O=C(Nc1ccn(-c2cncc(F)c2)n1)C1(c2ncccc2F)CC12CC2", "note": "(racemic) [Compound 473, 1-(3-fluoropyridin-2-yl)-N-(1-(5-fluoropyridin-3-yl)-1H-pyrazol-3-yl)spiro[2.2]pentane-1-carboxamide]", "IC50": 430}
{"compound": "O=C(Cc1ccccc1F)Nc1ccn(-c2ccccc2)n1", "note": "[Compound 1, 2-(2-fluorophenyl)-N-(1-phenylpyrazol-3-yl)acetamide]", "IC50": 68}
{"compound": "O=C(Nc1ccn(-c2ccccc2)n1)C1(c2ccccc2)CC1", "note": "[Compound 2, 1-phenyl-N-(1-phenyl-1H-pyrazol-3-yl)cyclopropane-1-carboxamide]", "IC50": 20}
{"compound": "O=C(Cc1ccccc1F)Nc1ccn(-c2ccnc(Cl)c2)n1", "note": "[Compound 4, N-[1-(2-chloro-4-pyridyl)pyrazol-3-yl]-2-(2-fluorophenyl)acetamide]", "IC50": 650}
{"compound": "O=C(Cc1ccsc1)Nc1ccn(-c2ccccc2)n1", "note": "[Compound 5, N-(1-phenylpyrazol-3-yl)-2-(3-thienyl)acetamide]", "IC50": 410}
{"compound": "O=C(Cc1ccc(Cl)cc1)Nc1ccn(-c2ccccc2)n1", "note": "[Compound 6, 2-(4-chlorophenyl)-N-(1-phenylpyrazol-3-yl)acetamide]", "IC50": "> 5000"}
{"compound": "COc1cccc(CC(=O)Nc2ccn(-c3ccccc3)n2)c1OC", "note": "[Compound 7, 2-(2,3-dimethoxyphenyl)-N-(1-phenylpyrazol-3-yl)acetamide]", "IC50": "> 5000"}
{"compound": "COc1cc(CC(=O)Nc2ccn(-c3ccccc3)n2)ccc1O", "note": "[Compound 9, 2-(4-hydroxy-3-methoxy-phenyl)-N-(1-phenylpyrazol-3-yl)acetamide]", "IC50": "> 5000"}
{"compound": "CC(C)c1ccc(CC(=O)Nc2ccn(-c3ccccc3)n2)cc1", "note": "[Compound 10, 2-(4-isopropylphenyl)-N-(1-phenylpyrazol-3-yl)acetamide]", "IC50": 4400}
{"compound": "Cc1ccccc1C1(C(=O)Nc2ccn(-c3ccccc3)n2)CC1", "note": "[Compound 12, 1-(o-tolyl)-N-(1-phenylpyrazol-3-yl)cyclopropanecarboxamide]", "IC50": 130}
{"compound": "O=C(Nc1ccn(-c2ccccc2)n1)C1(c2ccc(F)cc2)CC1", "note": "[Compound 13, 1-(4-fluorophenyl)-N-(1-phenylpyrazol-3-yl)cyclopropanecarboxamide]", "IC50": 82}
{"compound": "O=C(Cc1ccccc1F)Nc1ccn(-c2ccncc2)n1", "note": "[Compound 14, 2-(2-fluorophenyl)-N-[1-(4-pyridyl)pyrazol-3-yl]acetamide]", "IC50": 580}
{"compound": "O=C(Cc1ccccc1F)Nc1ccn(-c2cncnc2)n1", "note": "[Compound 15, 2-(2-fluorophenyl)-N-(1-pyrimidin-5-ylpyrazol-3-yl)acetamide]", "IC50": 1000}
{"compound": "O=C(Cc1ccc(F)cc1)Nc1ccn(-c2ccccc2)n1", "note": "[Compound 16, 2-(4-fluorophenyl)-N-(1-phenylpyrazol-3-yl)acetamide]", "IC50": 330}
{"compound": "O=C(Cc1cc(F)c(F)c(F)c1)Nc1ccn(-c2ccccc2)n1", "note": "[Compound 17, N-(1-phenylpyrazol-3-yl)-2-(3,4,5-trifluorophenyl)acetamide]", "IC50": "> 5000"}
{"compound": "O=C(Cc1ccc(F)cc1F)Nc1ccn(-c2ccccc2)n1", "note": "[Compound 18, 2-(2,4-difluorophenyl)-N-(1-phenylpyrazol-3-yl)acetamide]", "IC50": 260}
{"compound": "O=C(Nc1ccn(-c2ccccc2)n1)C1(c2cccc(Cl)c2)CC1", "note": "[Compound 19, 1-(3-chlorophenyl)-N-(1-phenylpyrazol-3-yl)cyclopropanecarboxamide]", "IC50": 250}
{"compound": "C[C@H](C(=O)Nc1ccn(-c2ccccc2)n1)c1ccccc1", "note": "[Compound 20, (2S)-2-phenyl-N-(1-phenylpyrazol-3-yl)propanamide]", "IC50": 26}
{"compound": "O=C(Nc1ccn(-c2ccccc2)n1)C1(c2cccc(F)c2)CC1", "note": "[Compound 21, 1-(3-fluorophenyl)-N-(1-phenylpyrazol-3-yl)cyclopropanecarboxamide]", "IC50": 150}
{"tested_on": "HEK293 cells", "assay": "HEK293 VLCFA-LPC IC50 determination (13C-labeled C26:0 LPC by UHPLC/MS)", "assay_type": "cell-based, human", "details": "Homo sapiens, HEK293, read-out: Average HEK293 IC50", "protocol": "as §1, §2, §3, §4, §5, §6, §7, §8", "units": {"IC50": "nM"}}
{"compound": "O=C(Nc1ccn(-c2ccnc(F)c2)n1)C1(c2ccccc2)CC1(F)F", "note": "(racemic) [Compound 169, 2,2-difluoro-N-(1-(2-fluoropyridin-4-yl)-1H-pyrazol-3-yl)-1-phenylcyclopropane-1-carboxamide]", "IC50": 52}
{"tested_on": "HEK293 cells", "assay": "HEK293 VLCFA-LPC IC50 determination (13C-labeled C26:0 LPC by UHPLC/MS)", "assay_type": "cell-based, human", "details": "average of one or more replicates; 13C-labeled C26:0 LPC, 48 hours; read-out: Average HEK293 IC50", "protocol": "as §1, §2, §3, §4, §5, §6, §7, §8", "units": {"IC50": "nM"}}
{"compound": "O=C(Nc1ccn(-c2ccccc2)n1)C1(c2ccccc2)CC1(F)F", "note": "(single isomer, unassigned) [Compound 367]", "IC50": 110}
{"compound": "O=C(Nc1ccn(-c2ccnc(F)c2)n1)C1(c2ccccc2)CC1(F)F", "note": "(single isomer, unassigned) [Compound 369]", "IC50": 36}
{"compound": "O=C(Nc1ccn(-c2ccncc2)n1)C1(c2ccccc2)CC1(F)F", "note": "(single isomer, unassigned) [Compound 434]", "IC50": 340}
{"compound": "O=C(Nc1ccn(-c2cncc(F)c2)n1)C1(c2ccccc2)CC1(F)F", "note": "(single isomer, unassigned) [Compound 435]", "IC50": 60}
{"compound": "O=C(Nc1ccn(-c2cncc(F)c2)n1)C1(c2ccccc2)CC1(F)F", "note": "(single isomer, unassigned) [Compound 436]", "IC50": 180}
{"compound": "O=C(Nc1ccn(-c2cccc(Cl)c2)n1)C1(c2ccccc2)CC1(F)F", "note": "(single isomer, unassigned) [Compound 437]", "IC50": 2400}
{"compound": "O=C(Nc1ccn(-c2cccc(Cl)c2)n1)C1(c2ccccc2)CC1(F)F", "note": "(single isomer, unassigned) [Compound 438]", "IC50": 540}
